# Reference: ChEMBL document CHEMBL4610106, “Identification of the Clinical Development Candidate MRTX849, a Covalent KRASG12C Inhibitor for the Treatment of Cancer” (J Med Chem, 2020)
# Legend:
# [1] = Drug metabolism in mouse hepatocytes assessed as peak area for metabolite formed due to biotransformation (dealkylation; glucuronide; GSH) at 10 uM incubated for 2 hrs by LC-MS analysis; type: ADME, cell-based, Hepatocyte
# [2] = Drug metabolism in mouse hepatocytes assessed as peak area for metabolite formed due to biotransformation (glucuronide; GSH) at 10 uM incubated for 2 hrs by LC-MS analysis; type: ADME, cell-based, Hepatocyte
# [3] = Drug metabolism in mouse hepatocytes assessed as peak area for metabolite formed due to biotransformation (sulfate) at 10 uM incubated for 2 hrs by LC-MS analysis; type: ADME, cell-based, Hepatocyte
# [4] = Drug metabolism in mouse hepatocytes assessed as peak area for metabolite formed due to biotransformation (dealkylation; GSH) at 10 uM incubated for 2 hrs by LC-MS analysis; type: ADME, cell-based, Hepatocyte
# [5] = Drug metabolism in mouse hepatocytes assessed as peak area for metabolite formed due to biotransformation ( GSH) at 10 uM incubated for 2 hrs by LC-MS analysis; type: ADME, cell-based, Hepatocyte
# [6] = Drug metabolism in mouse hepatocytes assessed as peak area for metabolite formed due to biotransformation (dealkylation; glucuronide) at 10 uM incubated for 2 hrs by LC-MS analysis; type: ADME, cell-based, Hepatocyte
# [7] = Drug metabolism in mouse hepatocytes assessed as peak area for metabolite formed due to biotransformation (glucuronide) at 10 uM incubated for 2 hrs by LC-MS analysis; type: ADME, cell-based, Hepatocyte
# [8] = Clearance in CD1 mouse at 3 mg/kg, iv; type: ADME, organism-based; details: in vivo
# [9] = Half life in CD1 mouse at 3 mg/kg, iv; type: ADME, organism-based; details: in vivo
# [10] = Volume of distribution at steady state in CD1 mouse at 3 mg/kg, iv; type: ADME, organism-based; details: in vivo, read-out: Vdss
# [11] = Protein binding in mouse plasma; type: ADME, cell-free; details: read-out: PPB (converted)
# [12] = Solubility in FaSSIF at pH 6.5; type: physicochemical
# [13] = Apparent permeability in pig LLC-PK1 cells; type: ADME, cell-based, Sus scrofa; details: read-out: permeability
# [14] = Cmax in CD1 mouse at 30 mg/kg, po; type: ADME, organism-based; design: dose 30 mg/kg, route oral; details: in vivo
# [15] = Tmax in CD1 mouse at 30 mg/kg, po; type: ADME, organism-based; details: in vivo
# [16] = AUC (infinity) in CD1 mouse at 30 mg/kg, po; type: ADME, organism-based; design: dose 30 mg/kg, time infinity, route oral; details: in vivo
# [17] = AUC (infinity) in beagle dog at 30 mg/kg, po; type: ADME, organism-based, Canis lupus familiaris; design: dose 30 mg/kg, route oral, time infinity; details: in vivo
# [18] = Tmax in beagle dog at 30 mg/kg, po; type: ADME, organism-based, Canis lupus familiaris; details: in vivo
# [19] = Cmax in beagle dog at 30 mg/kg, po; type: ADME, organism-based, Canis lupus familiaris; design: dose 30 mg/kg, route oral; details: in vivo
# [20] = Half life in beagle dog at 3 mg/kg, iv; type: ADME, organism-based, Canis lupus familiaris; details: in vivo
# [21] = Clearance in beagle dog at 3 mg/kg, iv; type: ADME, organism-based, Canis lupus familiaris; details: in vivo
# [22] = Volume of distribution at steady state in beagle dog at 3 mg/kg, iv; type: ADME, organism-based, Canis lupus familiaris; details: in vivo, read-out: Vdss
# [23] = Half life in mouse whole blood at 5 uM by LC-MS/MS analysis; type: ADME, tissue-based
# [24] = Half life in dog whole blood at 5 uM by LC-MS/MS analysis; type: ADME, tissue-based, Canis lupus familiaris
# [25] = Half life in human whole blood at 5 uM by LC-MS/MS analysis; type: ADME, tissue-based
# [26] = Protein binding in human plasma; type: ADME, cell-free; details: read-out: PPB (converted)
# [27] = Half life in rat at 3 mg/kg, iv; type: ADME, organism-based; details: in vivo
# [28] = Volume of distribution at steady state in rat at 3 mg/kg, iv; type: ADME, organism-based; details: in vivo
# [29] = Cmax in rat at 30 mg/kg, po; type: ADME, organism-based; design: dose 30 mg/kg, route oral; details: in vivo
# [30] = Tmax in rat at 30 mg/kg, po; type: ADME, organism-based; details: in vivo
# [31] = AUC (infinity) in rat at 30 mg/kg, po; type: ADME, organism-based; design: dose 30 mg/kg, time infinity, route oral; details: in vivo
# [32] = Toxicity in athymic nude-Foxn1nu mouse xenografted with human MIAPaCa2 cells assessed as induction of body weight loss at 10 to 100 mg/kg, po dosed daily via gavage for 16 days; type: organism-based, MIA PaCa-2; details: in vivo, 384 h
# MIA PaCa-2 = test: Antitumor activity against human MIAPaCa2 cells xenografted in athymic nude-Foxn1nu mouse assessed as maximally efficacious dose for induction of tumor regression at 10 to 100 mg/kg, po dosed daily via gavage for 16 days; type: functional
# in vivo [33] = details: beagle, dog, po, 30 mg/kg
# in vivo [34] = details: rat, po, 30 mg/kg
smiles,measurement,setting,value
C=C(F)C(=O)N1CCN(c2nc(OC[C@@H]3CCCN3C)nc3c2CCN(c2cccc4cccc(Cl)c24)C3)C[C@@H]1CC#N [ADAGRASIB],Drug metabolism,[1],Metabolite_Notdetected
same,Drug metabolism,[2],Metabolite_Notdetected
same,Drug metabolism,[3],Metabolite_Notdetected
same,Drug metabolism,[4],Metabolite_Notdetected
same,Drug metabolism,[5],Metabolite_Notdetected
same,Drug metabolism,[6],Metabolite_Notdetected
same,Drug metabolism,[7],Metabolite_Notdetected
same,clearance,[8],19.9 mL/min/kg
same,half-life,[9],1.51 h
same,Vd,[10],2.02 L/kg
same,fraction unbound,[11],0.01
same,solubility,[12],568 µg/mL
same,Papp,[13],4.7 ×10⁻⁶ cm/s
same,Cmax,[14],2410 ng/mL
same,Tmax,[15],1 h
same,AUC(0-inf),[16],15900 ng·h/mL
same,AUC(0-inf),[17],4470 ng·h/mL
same,Tmax,[18],4 h
same,Cmax,[19],252 ng/mL
same,half-life,[20],7.56 h
same,clearance,[21],29.6 mL/min/kg
same,Vd,[22],17.4 L/kg
same,half-life at 5 µM,[23],> 50 h
same,half-life at 5 µM,[24],> 50 h
same,half-life at 5 µM,[25],> 50 h
same,fraction unbound,[26],0.017
same,t1/2,[27],2.57 h
same,Vdss,[28],20.7 L/kg
same,Cmax,[29],209 ng/mL
same,Tmax,[30],2.67 h
same,AUC(0-inf),[31],2670 ng·h/mL
same,Activity,[32],Non-Toxic
same,Activity,MIA PaCa-2,30 to 100 mg/kg
same,bioavailability,in vivo [33],25.9%
same,bioavailability,in vivo [34],29.7%
